Data on four molecules can be found in article PMC3974799 (PLoS ONE, 2014).

The target of test [1] is T1, cytochrome bc1 complex (Btbc1), cyt b subunit (Bos taurus, UniProt P00157).
T1 construct: gene MT-CYB; purified 11-subunit mitochondrial bc1 complex from beef heart; with cyt c1, iron-sulfur protein (bc1 complex)
In words: cyt c reduction assay with purified bc1. The format is biochemical.

The target in test [2] is T1, cytochrome bc1 complex (Btbc1), cyt b subunit. In words: Lineweaver-Burk kinetics at […]; difference spectra; single turnover. The format is biochemical.
Test [3] has the same target. In words: cyt c reduction assay with purified bc1; also difference spectra and Lineweaver-Burk kinetics. The format is biochemical.
Test [4] has as its target T2, cytochrome bc1 complex (Rsbc1), cyt b subunit (Cereibacter sphaeroides, UniProt Q02761).
T2 construct: gene petB; purified hexahistidine-tagged 4-subunit bc1 complex; with cyt c1, iron-sulfur protein (bc1 complex)
T2 sequence (Q02761 2-445): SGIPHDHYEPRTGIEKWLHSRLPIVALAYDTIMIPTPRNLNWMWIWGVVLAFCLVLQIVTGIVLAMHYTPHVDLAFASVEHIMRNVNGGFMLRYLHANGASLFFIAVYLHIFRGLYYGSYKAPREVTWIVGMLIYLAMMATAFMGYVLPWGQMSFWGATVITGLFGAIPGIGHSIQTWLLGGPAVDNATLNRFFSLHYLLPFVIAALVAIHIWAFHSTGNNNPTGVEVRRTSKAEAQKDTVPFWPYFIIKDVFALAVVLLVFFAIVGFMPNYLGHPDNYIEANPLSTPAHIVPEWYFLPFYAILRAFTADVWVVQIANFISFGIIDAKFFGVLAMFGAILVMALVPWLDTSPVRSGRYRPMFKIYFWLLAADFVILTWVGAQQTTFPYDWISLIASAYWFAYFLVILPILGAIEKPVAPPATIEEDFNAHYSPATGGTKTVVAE
Nature of the test: cyt c reduction assay with purified bc1; Lineweaver-Burk kinetics. The format is biochemical.

The subject of test [5] is T3, Complex III (cyt bc1 complex), cyt b subunit.
T3 construct: light mitochondrial fraction; with cyt c1, iron-sulfur protein (bc1 complex)
In words: cyt c reduction with decylubiquinol in isolated mitochondria, […] inhibition at […]. The format is cell-based, Phytophthora capsici. Particulars: 4 µM.

T1 sequence (P00157 whole entry): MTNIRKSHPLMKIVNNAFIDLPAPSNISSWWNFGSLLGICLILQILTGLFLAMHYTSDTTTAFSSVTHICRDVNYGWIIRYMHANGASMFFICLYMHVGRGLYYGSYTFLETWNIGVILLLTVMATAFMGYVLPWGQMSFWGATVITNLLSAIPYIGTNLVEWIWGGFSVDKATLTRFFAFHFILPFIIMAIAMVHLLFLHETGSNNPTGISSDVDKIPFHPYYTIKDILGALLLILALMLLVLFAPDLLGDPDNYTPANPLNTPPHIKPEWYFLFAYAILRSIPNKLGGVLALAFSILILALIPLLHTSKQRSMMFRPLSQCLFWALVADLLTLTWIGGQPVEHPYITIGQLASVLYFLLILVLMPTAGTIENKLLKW
T1 sequence (P13272 79-274 partner): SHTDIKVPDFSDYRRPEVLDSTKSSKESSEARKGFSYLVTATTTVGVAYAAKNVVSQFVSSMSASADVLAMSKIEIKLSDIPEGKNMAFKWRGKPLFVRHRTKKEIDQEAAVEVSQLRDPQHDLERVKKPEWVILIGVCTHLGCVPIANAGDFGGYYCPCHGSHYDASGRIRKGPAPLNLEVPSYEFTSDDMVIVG
T1 sequence (P00125 85-325 partner): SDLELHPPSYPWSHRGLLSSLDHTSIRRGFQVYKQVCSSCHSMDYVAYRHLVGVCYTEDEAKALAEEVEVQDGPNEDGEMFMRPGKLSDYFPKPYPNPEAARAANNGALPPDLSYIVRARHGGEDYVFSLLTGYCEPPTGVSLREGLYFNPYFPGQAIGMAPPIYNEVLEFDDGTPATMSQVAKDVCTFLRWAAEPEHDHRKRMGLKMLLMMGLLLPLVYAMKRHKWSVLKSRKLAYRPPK

`CO/C=C(/C(=O)OC)c1ccccc1Oc1cc(Oc2ccccc2C#N)ncn1` [azoxystrobin]: half-maximal inhibition in test [1] (IC50) required 0.0477 µM.
In the case of `CO/C(=C/C(N)=O)[C@H](C)[C@H](/C=C/c1csc(-c2csc([C@@H](C)/C=C/C=C/C(C)C)n2)n1)OC` [myxothiazol], the “Lineweaver-Burk kinetics at 30 and 50 nM; difference spectra; single turnover” value in test [2] is recorded as “myxothiazol is a competitive inhibitor for the substrate quinol but a non-competitive inhibitor for cyt c”.
For the molecule `CC(C)(C)c1ccc(/C(=C/C(=O)N2CCOCC2)c2ccnc(Cl)c2)cc1` [pyrimorph, (Z)-3-[(2-chloropyridine-4-yl)-3-(4-tert-butylphenyl)-acryloyl] morpholine], the results for the half-maximal inhibitory concentration (IC50) in test [3] and in test [4] were 85 µM and 69.2 µM, respectively. The molecule also yielded a percent inhibition in test [5] of 95.3.
On to `C/C=C(C)/C=C/C=C/[C@H](OC)[C@@H](C)[C@@H](OC)[C@@H](C)CCc1oc2c(O)c(OC)cc(OC)c2c(=O)c1C` [stigmatellin], for which, in test [1], half-maximal inhibition (IC50) required 0.0028 µM.
